| Compound | melting point |
| --- | --- |
| CC(=O)N1CCCC1CN1C(=O)C2(COc3cc4c(cc32)CCO4)c2ccccc21 (stereo not given) | 103 to 108 °C |
| CCc1nc2c(cnn2CC)c(NC2CCOCC2)c1CNC(=O)c1cc(C)cc(C(=O)NCc2ccc(OC)c(Br)c2)c1 | 123 to 126 °C |
| CCc1cc(Nc2ccc(-c3ccccc3C#N)cc2)n2nccc2n1 | 247 to 248 °C |
| CC1=C(C#N)S(=O)(=O)c2cc(F)cc(F)c2N1 | 289 to 290 °C |
| CCCCCCCNC(=O)Nc1ccccc1C(=O)NCC1c2ccccc2COc2ccc(Br)cc21 (stereo not given) | 71 to 76 °C |
| c1ccc2oc(-c3nc(COc4ccc(CCCn5ccnc5)cc4)co3)cc2c1 | 122 to 123 °C |
| O=C(CCCCSc1ccc(O)cc1)N1CCOCC1 | 112 to 113 °C |
| CCCCc1ccc(NC(=O)c2ccc([N+](=O)[O-])cc2)cc1 | 151 to 152 °C |
| CCn1cc(C(=O)O)c(=O)c2c1SC(=NOCC(=O)O)C2 | 249 to 250 °C |
| COc1ccc(S(=O)(=O)Nc2ccc(COc3ccc4c(c3)CCC(CN(C)C)C4)cc2)cc1 (stereo not given) | 137 to 140 °C |
| Cc1c(N2C(=O)C[C@H](O)[C@@H]2C)ccc(C#N)c1F | 114 to 115 °C |
| O=c1c(Br)c(O)ccn1Cc1ccc(O)cc1 | 102 to 108 °C |
| CCN1C(=O)C(C)(C)c2ccc(C(=O)Nc3ccc(F)cc3)cc21 | 179 to 181 °C |
| Cc1ccc2nc(-c3cccc(Cl)c3)oc(=O)c2c1 | 160 to 162 °C |
| CCOC(=O)N1Cc2ccccc2C(Oc2cccc(C(F)(F)F)c2)C1 (stereo not given) | 98 to 100 °C |
| CCOC(=O)c1cn(-c2cc(N(C)C(=O)OC(C)(C)C)c(F)cc2F)c2c(C)c(F)c(F)cc2c1=O | 217 to 218 °C |
| O=C(O)Cc1ccc2c(c1)C(=O)c1ccc(Cl)cc1CS2 | 245 to 247 °C |
| CC#CCCn1ncc2c(OCC)c(C(=O)OCC)c(C)nc21 | 94 to 95 °C |
| CC(C)(C)CN1C(=O)[C@@H](CCO)O[C@H](c2ccccc2Cl)c2cc(Cl)ccc21 (relative stereo) | 157 to 159 °C |
| N#CNC(=N)NCCc1c[nH]cn1 | 152 to 154 °C |
| COC(=O)c1ccc(Cn2c(C=Cc3ccc(OC)c(OC)c3)nc3c(OC)c(C)c(C)c(OC)c32)cc1 | 111 to 114 °C |
| C#CC(CC(=O)O)c1ccc(OC)c(OC2CCCC2)c1 (racemic) | 101 to 102 °C |
| Cc1ccc(CSc2nc(C)n(C)c(=O)c2Br)cc1 | 73 to 74 °C |
| CCOC(=O)CC(C(=O)OCC)N1CCN(CC2CN(c3ccc(C(=N)NC(=O)c4ccccc4)cc3)C(=O)O2)CC1 (stereo not given) | 136 °C |
| O[C@@H](COCc1ccccc1)[C@H](OCc1ccccc1)[C@@H](OCc1ccccc1)[C@@H](O)COCc1ccccc1 | 52.5 to 53 °C |

| Compound | melting point |
| --- | --- |
| CNC(=S)n1nc(C=Cc2ccc(Cl)cc2)nc1N | 209 to 210 °C |
| CC(SCC(=O)O)c1ccc(-c2ccccc2F)cc1 (stereo not given) | 125 to 127 °C |
| CC1(C)CCC(=O)Nc2ccc(Nc3ncc(Cl)c(Nc4ccccc4-c4ncccn4)n3)cc21 | 186 °C |
| CC(C)(C)OC(=O)N1C[C@@H]2OCc3c(-c4ccccc4)nnn3[C@H]2C1 | 236 to 237 °C |
| Cc1ccc2nc(-c3ccc(C=O)cc3)cn2c1 | 210 to 211 °C |
| COc1nc(-c2ccccc2F)c2ccsc2n1 | 175 to 176 °C |
| CCCCn1c(=O)c2cn(S(=O)(=O)c3ccc(C(F)(F)F)cc3)nc2n(CCCC)c1=O | 151 to 153 °C |
| O=C(CCCCCS(=O)c1ccc(Cl)cc1)NO (stereo not given) | 125 °C |
| CCCCOCCOc1ccc(-c2ccc3c(c2)C=C(C(=O)Nc2ccc([C@H](O)c4ccccn4)cc2)CCN3C(=O)C(F)(F)F)cc1 | 100 to 102 °C |
| O=C(CS(=O)C(c1ccc(F)cc1)c1ccc(F)cc1)NO (stereo not given) | 90 to 91 °C |
| COc1ccc(N2CCOCC2)c2sc(-c3nc4ccc(C)nc4[nH]3)nc12 | 200 to 210 °C |
| Cc1c(O)ccc2c1C(C)(C)CC2 | 92 to 93 °C |
| Cc1cccc(C)c1NCC(N)=O | 89 to 92 °C |
| O=C1N(CC2CCOCC2)c2ccccc2C12COc1cc3c(cc12)OCO3 (stereo not given) | 142 to 144 °C |
| CCCCCCCCCCCCCCCCCCc1cc(OC(=O)CC)ccc1O | 75 to 78 °C |
| O=C1N(Cc2ccc3ncnn3c2)c2ccccc2C12COc1cc3c(cc12)OCCO3 (stereo not given) | 207 to 209 °C |
| CCS(=O)(=O)CCC(=O)NNC(=O)N1Cc2ccccc2Oc2ccc(F)cc21 | 191 to 193 °C |
| NS(=O)(=O)c1ccccc1C(=O)OCCO | 84 to 86.5 °C |
| CCOC(=O)C(C)Oc1cc(N=C(C(N)=O)N2CCCC2)c(Cl)cc1Cl (stereo not given) | 160 to 163 °C |
| Cc1ccc(Br)c(S(C)(=O)=O)c1 | 110 to 114 °C |
| COc1ccc(-c2nc(COc3ccc(CCCn4ccnc4)cc3)co2)s1 | 96 to 97 °C |
| O=C(c1ccccc1C(c1ccc(O)cc1)c1ccc(O)cc1)N1CCN(c2ccccc2Cl)CC1 | > 300 °C |
| CSc1ccc(CCCOCCCCCCNCC(O)c2ccc3c(n2)COC(c2ccccc2)O3)cc1 (stereo not given) | 70 °C |
| Cc1cc(Cl)ccc1NC(=O)c1cccc([N+](=O)[O-])c1C(=O)NC(C)C | 202 to 204 °C |
| Cc1ccsc1C=C1C(=O)COC1=O | 164 to 166 °C |
